According to the kinase profiling compilation of Christmann-Franck et al. (2016):

Columns and labels:
Test in all cases: KINOMEscan competition binding
Conditions in all cases: compound 10.0 µM
ROCK1 (human) = ROCK1 (human) (UniProt Q13464)
CLK1 (human) = CLK1 (human) (UniProt P49759)
CDK3 (human) = CDK3 (human) (UniProt Q00526)
STK17A (human) = STK17A (human) (UniProt Q9UEE5)
LRRK2 (human) = LRRK2 (human) (UniProt Q5S007)
TAOK3 (human) = TAOK3 (human) (UniProt Q9H2K8)
GRK4 (human) = GRK4 (human) (UniProt P32298)
CDK15 (human) = CDK15 (human) (UniProt Q96Q40)
PRKCE (human) = PRKCE (human) (UniProt Q02156)
TIE1 (human) = TIE1 (human) (UniProt P35590)
PDGFRA (human) = PDGFRA (human) (UniProt P16234)
MARK1 (human) = MARK1 (human) (UniProt Q9P0L2)
SRPK3 (human) = SRPK3 (human) (UniProt Q9UPE1)
IKBKB (human) = IKBKB (human) (UniProt O14920)
STK25 (human) = STK25 (human) (UniProt O00506)
SIK1 (human) = SIK1 (human) (UniProt P57059)
BMPR1A (human) = BMPR1A (human) (UniProt P36894)
MAPKAPK2 (human) = MAPKAPK2 (human) (UniProt P49137)
[1] = biological target: TYK2 JH2 pseudokinase (human) (UniProt P29597)
CSK (human) = CSK (human) (UniProt P41240)
MAP3K1 (human) = MAP3K1 (human) (UniProt Q13233)
PRKAA1 (human) = PRKAA1 (human) (UniProt Q13131)
MAPK4 (human) = MAPK4 (human) (UniProt P31152)
PRKG2 (human) = PRKG2 (human) (UniProt Q13237)
TNNI3K (human) = TNNI3K (human) (UniProt Q59H18)
CDC42BPA (human) = CDC42BPA (human) (UniProt Q5VT25)
MAPK10 (human) = MAPK10 (human) (UniProt P53779)
HIPK1 (human) = HIPK1 (human) (UniProt Q86Z02)
STK36 (human) = STK36 (human) (UniProt Q9NRP7)
FLT3 (human) = FLT3 (human) (UniProt P36888)
RET (human) = RET (human) (UniProt P07949)
PIM2 (human) = PIM2 (human) (UniProt Q9P1W9)
MAP3K5 (human) = MAP3K5 (human) (UniProt Q99683)
ACVR1B (human) = ACVR1B (human) (UniProt P36896)
MAP3K4 (human) = MAP3K4 (human) (UniProt Q9Y6R4)
PIM3 (human) = PIM3 (human) (UniProt Q86V86)
FGFR1 (human) = FGFR1 (human) (UniProt P11362)
MAP3K7 (human) = MAP3K7 (human) (UniProt O43318)
PRKAA2 (human) = PRKAA2 (human) (UniProt P54646)
NLK (human) = NLK (human) (UniProt Q9UBE8)

Chain of CSK (human) (P41240 whole entry, looked up): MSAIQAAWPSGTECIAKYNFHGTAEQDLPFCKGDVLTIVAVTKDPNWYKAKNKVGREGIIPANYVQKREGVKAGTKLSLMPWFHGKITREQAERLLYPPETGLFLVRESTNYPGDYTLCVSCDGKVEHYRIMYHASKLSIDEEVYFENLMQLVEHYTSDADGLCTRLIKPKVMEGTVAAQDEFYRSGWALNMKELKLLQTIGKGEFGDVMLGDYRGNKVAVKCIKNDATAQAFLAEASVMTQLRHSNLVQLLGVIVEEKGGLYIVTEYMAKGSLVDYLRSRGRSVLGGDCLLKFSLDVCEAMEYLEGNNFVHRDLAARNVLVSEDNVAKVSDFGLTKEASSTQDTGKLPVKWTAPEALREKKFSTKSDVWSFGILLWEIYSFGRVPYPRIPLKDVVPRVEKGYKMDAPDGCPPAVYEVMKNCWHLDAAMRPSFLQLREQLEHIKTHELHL
Chain of CDK15 (human) (Q96Q40 whole entry, looked up): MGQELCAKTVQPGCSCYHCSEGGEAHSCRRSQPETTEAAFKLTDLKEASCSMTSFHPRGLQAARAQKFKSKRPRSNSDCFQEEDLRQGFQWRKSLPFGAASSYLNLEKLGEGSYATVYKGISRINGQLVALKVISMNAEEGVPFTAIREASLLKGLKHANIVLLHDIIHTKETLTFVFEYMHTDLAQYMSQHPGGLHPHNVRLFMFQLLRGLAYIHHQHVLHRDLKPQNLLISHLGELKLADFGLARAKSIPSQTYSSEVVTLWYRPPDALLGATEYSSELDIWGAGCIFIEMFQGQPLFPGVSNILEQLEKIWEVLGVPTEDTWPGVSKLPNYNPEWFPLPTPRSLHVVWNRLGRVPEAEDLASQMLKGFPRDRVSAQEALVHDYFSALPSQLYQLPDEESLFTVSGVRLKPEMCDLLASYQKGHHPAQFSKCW
Chain of PRKAA1 (human) (Q13131 whole entry, looked up): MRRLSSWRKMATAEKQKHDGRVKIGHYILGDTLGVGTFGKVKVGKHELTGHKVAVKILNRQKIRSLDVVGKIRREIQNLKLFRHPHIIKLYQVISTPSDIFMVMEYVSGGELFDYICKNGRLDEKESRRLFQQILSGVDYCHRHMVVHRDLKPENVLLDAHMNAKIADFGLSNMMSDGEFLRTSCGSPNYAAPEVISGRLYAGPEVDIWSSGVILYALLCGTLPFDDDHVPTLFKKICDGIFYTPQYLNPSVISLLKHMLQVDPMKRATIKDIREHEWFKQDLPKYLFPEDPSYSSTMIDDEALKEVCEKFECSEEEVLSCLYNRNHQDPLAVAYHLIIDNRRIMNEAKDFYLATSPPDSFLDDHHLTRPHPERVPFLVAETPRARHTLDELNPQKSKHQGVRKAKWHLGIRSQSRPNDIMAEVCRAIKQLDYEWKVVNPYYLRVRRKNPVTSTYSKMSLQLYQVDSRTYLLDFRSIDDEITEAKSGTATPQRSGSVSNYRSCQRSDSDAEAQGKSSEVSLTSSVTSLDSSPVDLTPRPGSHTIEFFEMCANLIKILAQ
Chain of STK36 (human) (Q9NRP7 whole entry, looked up): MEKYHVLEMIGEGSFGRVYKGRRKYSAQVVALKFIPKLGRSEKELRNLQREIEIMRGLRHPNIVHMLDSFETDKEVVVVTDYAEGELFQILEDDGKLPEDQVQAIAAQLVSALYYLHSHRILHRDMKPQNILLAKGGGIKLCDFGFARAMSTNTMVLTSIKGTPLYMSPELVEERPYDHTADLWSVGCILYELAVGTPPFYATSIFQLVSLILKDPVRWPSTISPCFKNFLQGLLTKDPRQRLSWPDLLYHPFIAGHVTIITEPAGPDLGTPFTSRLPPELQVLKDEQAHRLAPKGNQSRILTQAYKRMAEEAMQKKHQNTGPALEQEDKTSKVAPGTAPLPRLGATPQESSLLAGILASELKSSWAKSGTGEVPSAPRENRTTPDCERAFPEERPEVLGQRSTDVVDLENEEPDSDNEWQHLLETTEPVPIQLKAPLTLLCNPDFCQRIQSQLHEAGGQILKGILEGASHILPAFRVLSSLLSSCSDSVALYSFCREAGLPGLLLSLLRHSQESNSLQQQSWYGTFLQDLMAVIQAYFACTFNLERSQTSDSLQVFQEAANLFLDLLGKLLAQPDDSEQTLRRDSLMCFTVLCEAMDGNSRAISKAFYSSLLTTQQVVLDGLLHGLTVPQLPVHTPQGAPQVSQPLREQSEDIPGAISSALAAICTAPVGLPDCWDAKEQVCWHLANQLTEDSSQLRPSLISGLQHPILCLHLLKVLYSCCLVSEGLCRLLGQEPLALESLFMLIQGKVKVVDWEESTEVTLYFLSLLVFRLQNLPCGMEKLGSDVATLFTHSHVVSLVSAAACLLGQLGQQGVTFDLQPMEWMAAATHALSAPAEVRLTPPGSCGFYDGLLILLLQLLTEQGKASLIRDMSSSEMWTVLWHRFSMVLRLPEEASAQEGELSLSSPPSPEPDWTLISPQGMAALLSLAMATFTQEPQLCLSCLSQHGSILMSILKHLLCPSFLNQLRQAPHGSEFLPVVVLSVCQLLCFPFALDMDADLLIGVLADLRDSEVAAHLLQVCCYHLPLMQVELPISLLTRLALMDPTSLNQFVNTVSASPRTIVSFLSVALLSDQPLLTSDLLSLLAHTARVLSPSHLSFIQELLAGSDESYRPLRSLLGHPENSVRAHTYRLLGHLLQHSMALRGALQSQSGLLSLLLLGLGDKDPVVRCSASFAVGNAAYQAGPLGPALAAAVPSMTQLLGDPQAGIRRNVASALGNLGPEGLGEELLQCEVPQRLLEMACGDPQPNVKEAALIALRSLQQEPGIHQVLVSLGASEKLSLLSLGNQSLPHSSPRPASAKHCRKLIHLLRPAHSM
Chain of FGFR1 (human) (P11362 whole entry, looked up): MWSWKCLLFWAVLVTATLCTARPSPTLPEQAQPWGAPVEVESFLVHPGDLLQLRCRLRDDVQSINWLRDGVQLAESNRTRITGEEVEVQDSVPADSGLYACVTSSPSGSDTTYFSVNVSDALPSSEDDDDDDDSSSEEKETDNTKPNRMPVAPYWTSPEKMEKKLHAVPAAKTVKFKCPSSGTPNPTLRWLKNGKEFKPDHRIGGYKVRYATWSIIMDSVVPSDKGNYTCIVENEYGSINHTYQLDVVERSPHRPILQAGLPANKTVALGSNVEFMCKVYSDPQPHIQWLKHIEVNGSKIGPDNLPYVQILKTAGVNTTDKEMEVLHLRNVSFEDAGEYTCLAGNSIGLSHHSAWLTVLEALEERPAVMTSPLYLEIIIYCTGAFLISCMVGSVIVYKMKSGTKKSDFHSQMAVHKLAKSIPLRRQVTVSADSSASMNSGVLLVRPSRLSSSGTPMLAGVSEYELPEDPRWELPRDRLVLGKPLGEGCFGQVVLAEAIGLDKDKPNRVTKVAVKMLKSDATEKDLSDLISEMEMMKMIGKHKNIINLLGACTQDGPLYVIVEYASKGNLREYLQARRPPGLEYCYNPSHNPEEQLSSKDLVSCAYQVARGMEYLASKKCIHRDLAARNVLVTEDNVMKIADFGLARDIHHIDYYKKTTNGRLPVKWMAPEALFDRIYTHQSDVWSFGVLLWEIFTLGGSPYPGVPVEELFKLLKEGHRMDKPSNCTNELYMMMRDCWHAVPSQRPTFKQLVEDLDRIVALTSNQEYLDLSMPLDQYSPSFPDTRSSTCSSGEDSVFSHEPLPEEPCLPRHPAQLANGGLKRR
Chain of CDK3 (human) (Q00526 whole entry, looked up): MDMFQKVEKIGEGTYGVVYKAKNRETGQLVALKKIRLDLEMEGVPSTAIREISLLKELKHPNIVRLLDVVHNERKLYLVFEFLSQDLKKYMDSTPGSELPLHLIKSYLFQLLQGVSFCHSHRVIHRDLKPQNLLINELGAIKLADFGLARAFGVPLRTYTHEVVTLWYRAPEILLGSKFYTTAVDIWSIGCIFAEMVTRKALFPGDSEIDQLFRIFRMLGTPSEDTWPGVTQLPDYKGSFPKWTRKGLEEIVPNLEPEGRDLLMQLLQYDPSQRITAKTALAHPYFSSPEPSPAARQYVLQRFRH
Chain of BMPR1A (human) (P36894 whole entry, looked up): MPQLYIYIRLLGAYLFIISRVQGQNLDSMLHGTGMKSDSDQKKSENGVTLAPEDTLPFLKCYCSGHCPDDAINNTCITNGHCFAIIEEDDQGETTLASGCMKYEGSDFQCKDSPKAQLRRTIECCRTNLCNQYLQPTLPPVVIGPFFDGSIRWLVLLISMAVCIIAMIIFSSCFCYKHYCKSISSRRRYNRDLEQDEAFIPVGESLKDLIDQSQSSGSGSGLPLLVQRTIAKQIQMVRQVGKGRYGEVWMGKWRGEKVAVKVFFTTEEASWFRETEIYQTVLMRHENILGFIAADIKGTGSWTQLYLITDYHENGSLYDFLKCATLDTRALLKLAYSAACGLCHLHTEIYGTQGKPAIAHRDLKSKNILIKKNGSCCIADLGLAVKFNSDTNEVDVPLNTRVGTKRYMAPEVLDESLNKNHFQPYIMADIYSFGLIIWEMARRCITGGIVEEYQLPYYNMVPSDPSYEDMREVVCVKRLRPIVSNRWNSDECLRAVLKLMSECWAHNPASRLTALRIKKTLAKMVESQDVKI
Chain of MAPK4 (human) (P31152 whole entry, looked up): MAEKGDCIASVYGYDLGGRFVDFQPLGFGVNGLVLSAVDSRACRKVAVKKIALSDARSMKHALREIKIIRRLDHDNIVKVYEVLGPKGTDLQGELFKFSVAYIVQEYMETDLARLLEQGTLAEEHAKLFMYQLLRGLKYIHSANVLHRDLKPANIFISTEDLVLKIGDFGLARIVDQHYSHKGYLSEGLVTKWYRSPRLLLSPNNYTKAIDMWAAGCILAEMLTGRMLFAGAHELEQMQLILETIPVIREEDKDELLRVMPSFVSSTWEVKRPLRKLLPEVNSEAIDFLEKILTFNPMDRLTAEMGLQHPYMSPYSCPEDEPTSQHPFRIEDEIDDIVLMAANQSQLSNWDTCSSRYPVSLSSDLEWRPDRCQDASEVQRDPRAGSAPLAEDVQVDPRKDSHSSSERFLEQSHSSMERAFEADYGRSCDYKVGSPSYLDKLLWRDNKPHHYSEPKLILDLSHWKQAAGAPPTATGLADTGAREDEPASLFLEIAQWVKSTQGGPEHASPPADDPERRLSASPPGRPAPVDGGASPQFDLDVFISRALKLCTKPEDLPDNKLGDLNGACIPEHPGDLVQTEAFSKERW

## COc1ccc(N(C(=O)Oc2c(C)cccc2C)c2ccnc(Nc3ccc(N4CCN(C)CC4)cc3)n2)c(OC)c1
ROCK1 (human)
  kinase still bound, per cent of control: 65%
CLK1 (human)
  kinase still bound, per cent of control: 84%
CDK3 (human)
  kinase still bound, per cent of control: 100%
STK17A (human)
  kinase still bound, per cent of control: 100%
LRRK2 (human)
  kinase still bound, per cent of control: 78%
TAOK3 (human)
  kinase still bound, per cent of control: 4%
GRK4 (human)
  kinase still bound, per cent of control: 7.9%
CDK15 (human)
  kinase still bound, per cent of control: 94%
PRKCE (human)
  kinase still bound, per cent of control: 27%
TIE1 (human)
  kinase still bound, per cent of control: 5.8%
PDGFRA (human)
  kinase still bound, per cent of control: 9.9%
MARK1 (human)
  kinase still bound, per cent of control: 24%
SRPK3 (human)
  kinase still bound, per cent of control: 11%
IKBKB (human)
  kinase still bound, per cent of control: 93%
STK25 (human)
  kinase still bound, per cent of control: 61%
SIK1 (human)
  kinase still bound, per cent of control: 0.3%
BMPR1A (human)
  kinase still bound, per cent of control: 0.1%
MAPKAPK2 (human)
  kinase still bound, per cent of control: 100%
[1]
  kinase still bound, per cent of control: 100%
CSK (human)
  kinase still bound, per cent of control: 2.5%
MAP3K1 (human)
  kinase still bound, per cent of control: 32%
PRKAA1 (human)
  kinase still bound, per cent of control: 23%
MAPK4 (human)
  kinase still bound, per cent of control: 100%
PRKG2 (human)
  kinase still bound, per cent of control: 92%
TNNI3K (human)
  kinase still bound, per cent of control: 0%
CDC42BPA (human)
  kinase still bound, per cent of control: 16%
MAPK10 (human)
  kinase still bound, per cent of control: 37%
HIPK1 (human)
  kinase still bound, per cent of control: 100%
STK36 (human)
  kinase still bound, per cent of control: 0.95%
FLT3 (human)
  kinase still bound, per cent of control: 2.3%
RET (human)
  kinase still bound, per cent of control: 0.1%
PIM2 (human)
  kinase still bound, per cent of control: 100%
MAP3K5 (human)
  kinase still bound, per cent of control: 100%
ACVR1B (human)
  kinase still bound, per cent of control: 1%
MAP3K4 (human)
  kinase still bound, per cent of control: 23%
PIM3 (human)
  kinase still bound, per cent of control: 92%
FGFR1 (human)
  kinase still bound, per cent of control: 0.25%
MAP3K7 (human)
  kinase still bound, per cent of control: 57%
PRKAA2 (human)
  kinase still bound, per cent of control: 7.9%
NLK (human)
  kinase still bound, per cent of control: 3.9%

## CN(C)C/C=C/C(=O)Nc1ccc(C(=O)Nc2cccc(Nc3nccc(-c4cccnc4)n3)c2)cc1
ROCK1 (human)
  kinase still bound, per cent of control: 48%
CLK1 (human)
  kinase still bound, per cent of control: 4.6%
CDK3 (human)
  kinase still bound, per cent of control: 96%
STK17A (human)
  kinase still bound, per cent of control: 6.4%
LRRK2 (human)
  kinase still bound, per cent of control: 100%
TAOK3 (human)
  kinase still bound, per cent of control: 37%
GRK4 (human)
  kinase still bound, per cent of control: 29%
CDK15 (human)
  kinase still bound, per cent of control: 100%
PRKCE (human)
  kinase still bound, per cent of control: 75%
TIE1 (human)
  kinase still bound, per cent of control: 55%
PDGFRA (human)
  kinase still bound, per cent of control: 4%
MARK1 (human)
  kinase still bound, per cent of control: 70%
SRPK3 (human)
  kinase still bound, per cent of control: 28%
IKBKB (human)
  kinase still bound, per cent of control: 65%
STK25 (human)
  kinase still bound, per cent of control: 83%
SIK1 (human)
  kinase still bound, per cent of control: 100%
BMPR1A (human)
  kinase still bound, per cent of control: 36%
MAPKAPK2 (human)
  kinase still bound, per cent of control: 100%
[1]
  kinase still bound, per cent of control: 0.2%
CSK (human)
  kinase still bound, per cent of control: 97%
MAP3K1 (human)
  kinase still bound, per cent of control: 100%
PRKAA1 (human)
  kinase still bound, per cent of control: 100%
MAPK4 (human)
  kinase still bound, per cent of control: 19%
PRKG2 (human)
  kinase still bound, per cent of control: 76%
TNNI3K (human)
  kinase still bound, per cent of control: 100%
CDC42BPA (human)
  kinase still bound, per cent of control: 100%
MAPK10 (human)
  kinase still bound, per cent of control: 1.3%
HIPK1 (human)
  kinase still bound, per cent of control: 6%
STK36 (human)
  kinase still bound, per cent of control: 99%
FLT3 (human)
  kinase still bound, per cent of control: 36%
RET (human)
  kinase still bound, per cent of control: 79%
PIM2 (human)
  kinase still bound, per cent of control: 100%
MAP3K5 (human)
  kinase still bound, per cent of control: 100%
ACVR1B (human)
  kinase still bound, per cent of control: 86%
MAP3K4 (human)
  kinase still bound, per cent of control: 71%
PIM3 (human)
  kinase still bound, per cent of control: 78%
FGFR1 (human)
  kinase still bound, per cent of control: 89%
MAP3K7 (human)
  kinase still bound, per cent of control: 9.2%
PRKAA2 (human)
  kinase still bound, per cent of control: 95%
NLK (human)
  kinase still bound, per cent of control: 82%
